Reference: the NIST ThermoML archive (doi:10.1021/je060271a)

Conditions: 323.15 K, Liquid, Vibrating tube method

CCCCCCC(=O)OCC(COC(=O)CCCCCC)(COC(=O)CCCCCC)COC(=O)CCCCCC [pentaerythritol tetraheptanoate]
Conditions | mass density [kg/m3]
16867 kPa | 966.6
16877 kPa | 966.8
16890 kPa | 966.9
16900 kPa | 966.7
16913 kPa | 966.7
17014 kPa | 966.8
17028 kPa | 966.8
17038 kPa | 966.9
17049 kPa | 967
17062 kPa | 966.9
17072 kPa | 966.9
17084 kPa | 966.9
17095 kPa | 966.8
17108 kPa | 966.8
17119 kPa | 967
17131 kPa | 966.9
17142 kPa | 967
17153 kPa | 966.9
17164 kPa | 967
17177 kPa | 967
17188 kPa | 966.9
17201 kPa | 966.9
17212 kPa | 967
17247 kPa | 967
17258 kPa | 966.9
17269 kPa | 967
17282 kPa | 967
17293 kPa | 967
17307 kPa | 967.1
17318 kPa | 967
17389 kPa | 967
17412 kPa | 967.1
17426 kPa | 967
17437 kPa | 967.2
17451 kPa | 967.1
17462 kPa | 967.1
17474 kPa | 967.2
17485 kPa | 967.2
17499 kPa | 967.2
17511 kPa | 967
17536 kPa | 967.2
17548 kPa | 967.2
17559 kPa | 967.3
17573 kPa | 967.2
17584 kPa | 967.3
17596 kPa | 967.2
17610 kPa | 967.2
17621 kPa | 967.1
17633 kPa | 967.2
17647 kPa | 967.2
17746 kPa | 967.4
17760 kPa | 967.3
17772 kPa | 967.3
17810 kPa | 967.3
17822 kPa | 967.2
17836 kPa | 967.4
17848 kPa | 967.3
17861 kPa | 967.3
17873 kPa | 967.3
17899 kPa | 967.4
17962 kPa | 967.4
17976 kPa | 967.5
17989 kPa | 967.4
18016 kPa | 967.4
18029 kPa | 967.5
18041 kPa | 967.5
18053 kPa | 967.5
18066 kPa | 967.5
18080 kPa | 967.5
18092 kPa | 967.4
18107 kPa | 967.5
18119 kPa | 967.5
18132 kPa | 967.6
18146 kPa | 967.5
18159 kPa | 967.5
18186 kPa | 967.6
18524 kPa | 967.9
18537 kPa | 967.8
18550 kPa | 967.9
18565 kPa | 967.6
18579 kPa | 967.8
18594 kPa | 967.7
18608 kPa | 967.8
18621 kPa | 967.8
18634 kPa | 967.9
18650 kPa | 967.8
18663 kPa | 967.8
18676 kPa | 967.8
18692 kPa | 967.9
18704 kPa | 967.9
18721 kPa | 967.9
18734 kPa | 967.9
18747 kPa | 967.9
18761 kPa | 967.9
18777 kPa | 967.8
18790 kPa | 968
18803 kPa | 968
18820 kPa | 968
18833 kPa | 967.9
18848 kPa | 968
18862 kPa | 968
18876 kPa | 968
18889 kPa | 968.1
18906 kPa | 968
18950 kPa | 968
18977 kPa | 968.1
18993 kPa | 967.9
19007 kPa | 968.1
19021 kPa | 968.1
19037 kPa | 968.1
19051 kPa | 968.2
19064 kPa | 968.1
19081 kPa | 968
19096 kPa | 968.1
19124 kPa | 968
19140 kPa | 968.1
19154 kPa | 968.1
19168 kPa | 968.1
19182 kPa | 968.1
19199 kPa | 968.2
19213 kPa | 968.2
19228 kPa | 968.1
19245 kPa | 968.2
19259 kPa | 968.2
19273 kPa | 968.3
19289 kPa | 968.3
19303 kPa | 968.3
19320 kPa | 968.2
19334 kPa | 968.3
19351 kPa | 968.3
19366 kPa | 968.3
19380 kPa | 968.2
19394 kPa | 968.4
19411 kPa | 968.4
19425 kPa | 968.4
19440 kPa | 968.3
19457 kPa | 968.3
19472 kPa | 968.4
19489 kPa | 968.3
19503 kPa | 968.3
19564 kPa | 968.3
19579 kPa | 968.3
19597 kPa | 968.4
19611 kPa | 968.4
19629 kPa | 968.5
19644 kPa | 968.5
19659 kPa | 968.5
19674 kPa | 968.5
19688 kPa | 968.5
19706 kPa | 968.5
19721 kPa | 968.5
19738 kPa | 968.5
19754 kPa | 968.6
19769 kPa | 968.5
19787 kPa | 968.5
19802 kPa | 968.5
19816 kPa | 968.5
19834 kPa | 968.5
19850 kPa | 968.5
19864 kPa | 968.6
19882 kPa | 968.7
19898 kPa | 968.5
19913 kPa | 968.7
19928 kPa | 968.6
19947 kPa | 968.6
19977 kPa | 968.5
19995 kPa | 968.5
20026 kPa | 968.6
20044 kPa | 968.7
20059 kPa | 968.7
20075 kPa | 968.6
20094 kPa | 968.8
20109 kPa | 968.7
20125 kPa | 968.8
20141 kPa | 968.8
20159 kPa | 968.8
20175 kPa | 968.9
20193 kPa | 968.8
20209 kPa | 968.9
20224 kPa | 968.8
20240 kPa | 968.9
20258 kPa | 969
20274 kPa | 968.8
20293 kPa | 968.9
20309 kPa | 968.8
20325 kPa | 968.8
20344 kPa | 968.9
20359 kPa | 968.9
20375 kPa | 968.9
20390 kPa | 968.9
20410 kPa | 968.9
20426 kPa | 969
20444 kPa | 969
20460 kPa | 969
20476 kPa | 968.9
20496 kPa | 969
20512 kPa | 969
20528 kPa | 969
20544 kPa | 969
20564 kPa | 969.1
20580 kPa | 969
20596 kPa | 969
20631 kPa | 969.1
20648 kPa | 969
20667 kPa | 969.1
20684 kPa | 969.2
20700 kPa | 969.1
20720 kPa | 969.2
20737 kPa | 969.1
20755 kPa | 969.2
20771 kPa | 969.1
20791 kPa | 969.2
20808 kPa | 969.1
20824 kPa | 969.2
20841 kPa | 969.2
20861 kPa | 969.3
20877 kPa | 969.3
20894 kPa | 969.3
20914 kPa | 969.2
20931 kPa | 969.3
20985 kPa | 969.2
21022 kPa | 969.1
21039 kPa | 969.4
